Data reported in patent publication US20160090556A1, “PRODUCTS COMPRISING MALODOR REDUCTION MATERIALS” (The Procter & Gamble Company, priority 2014, published 2016).

Test: Liquid dish neat product liquid-air partition coefficient
Assay type: physicochemical
Conditions: not given

Row | Structure (SMILES) | Log of liquid dish neat product liquid-air partition coefficient (Comment Code K/L)
1 | CC(=O)c1cc2c(cc1C)C(C)(C)C(C)C2(C)C (stereo not shown) [Material 927] | K (Log of liquid dish neat product liquid-air partition coefficient greater than or equal to −7)
2 | CC1=CC[C@@H]2[C@@]3(C)CCCC(C)(C)[C@@H]3CC[C@@]2(C)O1 [Material 1029] | K (Log of liquid dish neat product liquid-air partition coefficient greater than or equal to −7)
3 | Cc1cccc(CCO)c1 [Material 928] | K (Log of liquid dish neat product liquid-air partition coefficient greater than or equal to −7)
4 | CC(C)c1cccc(C(C)CC=O)c1 (stereo not shown) [Material 914] | K (Log of liquid dish neat product liquid-air partition coefficient greater than or equal to −7)
5 | CCCOC(C)OCCc1ccccc1 (stereo not shown) [Material 766] | K (Log of liquid dish neat product liquid-air partition coefficient greater than or equal to −7)
6 | CCC(C)C(=O)OCCc1ccccc1 (stereo not shown) [Material 954] | K (Log of liquid dish neat product liquid-air partition coefficient greater than or equal to −7)
7 | C=CCOC(=O)CCC1CCCCC1 [Material 746] | K (Log of liquid dish neat product liquid-air partition coefficient greater than or equal to −7)
8 | CCCC(O)CCC1C(C)CCCC1(C)C (stereo not shown) [Material 1063] | K (Log of liquid dish neat product liquid-air partition coefficient greater than or equal to −7)
9 | C/C(=C\C#N)CCc1ccccc1 [Material 894] | K (Log of liquid dish neat product liquid-air partition coefficient greater than or equal to −7)
10 | COC1(C)CCC23CC1C(C)(C)C2CCC3C (stereo not shown) [Material 565] | K (Log of liquid dish neat product liquid-air partition coefficient greater than or equal to −7)
11 | C=C1C=CC(C(C)CCC=C(C)C)CC1 (stereo not shown) [Material 614] | K (Log of liquid dish neat product liquid-air partition coefficient greater than or equal to −7)
12 | C[C@@H]1CC[C@H]2C(C)(C)[C@H]3C[C@@]12CC1OC(C)(C)OC13C (stereo partly shown) [Material 674] | K (Log of liquid dish neat product liquid-air partition coefficient greater than or equal to −7)
13 | C=CCCCCCCCCC(=O)OCCCC [Material 599] | K (Log of liquid dish neat product liquid-air partition coefficient greater than or equal to −7)
14 | C=C(C)[C@@H]1CCC2=CCC[C@@H](C)[C@]2(C)C1 [Material 1105] | K (Log of liquid dish neat product liquid-air partition coefficient greater than or equal to −7)
15 | CCCCCCCCCCO [Material 868] | K (Log of liquid dish neat product liquid-air partition coefficient greater than or equal to −7)
16 | CC(C)=C1CCC2=CC(=O)CC(C)C2(C)C1 (stereo not shown) [Material 684] | K (Log of liquid dish neat product liquid-air partition coefficient greater than or equal to −7)

Same assay, conditions: class code letter within Comment Code

Row | Structure (SMILES) | Log of liquid dish neat product liquid-air partition coefficient (Comment Code K/L)
17 | CCOC(=O)C12CCCC1C1CCC2C1 (stereo not shown) [Material 344] | K (Log of liquid dish neat product liquid-air partition coefficient greater than or equal to −7)
18 | CCC=CCC1C(=O)CCC1CC(=O)OC (stereo not shown) [Material 112] | K (Log of liquid dish neat product liquid-air partition coefficient greater than or equal to −7)
19 | CCCCCCCCCCCCOC(C)=O [Material 175] | K (Log of liquid dish neat product liquid-air partition coefficient greater than or equal to −7)
20 | CC(C)C(=O)OCC=Cc1ccccc1 [Material 550] | K (Log of liquid dish neat product liquid-air partition coefficient greater than or equal to −7)
21 | CCNC(=O)C1CC(C)CCC1C(C)C (stereo not shown) [Material 57] | K (Log of liquid dish neat product liquid-air partition coefficient greater than or equal to −7)
22 | CCC(=O)OCC=Cc1ccccc1 [Material 548] | K (Log of liquid dish neat product liquid-air partition coefficient greater than or equal to −7)
23 | CCCCCCCCCC(C)C(OC)OC (stereo not shown) [Material 101] | K (Log of liquid dish neat product liquid-air partition coefficient greater than or equal to −7)
24 | CC1OC(C)C2Cc3ccccc3C2O1 (stereo not shown) [Material 141] | K (Log of liquid dish neat product liquid-air partition coefficient greater than or equal to −7)
25 | CC/C=C\CCOC(=O)c1ccccc1 [Material 541] | K (Log of liquid dish neat product liquid-air partition coefficient greater than or equal to −7)
26 | C/C=C1/CC2CC1C1CCC(=O)OC21 (stereo not shown) [Material 353] | K (Log of liquid dish neat product liquid-air partition coefficient greater than or equal to −7)
27 | CCOC(C)OCCc1ccccc1 (stereo not shown) [Material 415] | K (Log of liquid dish neat product liquid-air partition coefficient greater than or equal to −7)
28 | CC1C(C)(C)C2=C(C3OC(C)(C)OC3CC2)C1(C)C (stereo not shown) [Material 23] | K (Log of liquid dish neat product liquid-air partition coefficient greater than or equal to −7)
29 | CCOC(=O)C1CCC(C(=O)OCC)CC1 (stereo not shown) [Material 347] | K (Log of liquid dish neat product liquid-air partition coefficient greater than or equal to −7)
30 | Cc1cccc(CC(C)(C)CO)c1 [Material 140] | K (Log of liquid dish neat product liquid-air partition coefficient greater than or equal to −7)
31 | CCCCCCCCC1CCC(=O)O1 (stereo not shown) [Material 330] | K (Log of liquid dish neat product liquid-air partition coefficient greater than or equal to −7)
32 | O=C1CCCCCCCCCC/C=C/CCO1 [Material 289] | K (Log of liquid dish neat product liquid-air partition coefficient greater than or equal to −7)
33 | CC(=O)c1oc2ccccc2c1C [Material 61] | K (Log of liquid dish neat product liquid-air partition coefficient greater than or equal to −7)

Same assay, conditions: code letters K, L

Row | Structure (SMILES) | Comment Code: Log of liquid dish neat product liquid-air partition coefficient
34 | CC(=O)c1cc2c(cc1C)C(C)(C)C(C)C2(C)C (stereo not shown) [Material 927] | K (Log of liquid dish neat product liquid-air partition coefficient greater than or equal to −7)
35 | CC1=CC[C@@H]2[C@@]3(C)CCCC(C)(C)[C@@H]3CC[C@@]2(C)O1 [Material 1029] | K (Log of liquid dish neat product liquid-air partition coefficient greater than or equal to −7)
36 | COc1cc(C)cc(O)c1 [Material 811] | K (Log of liquid dish neat product liquid-air partition coefficient greater than or equal to −7)
37 | C=C[C@@](C)(O)CCC=C(C)C [Material 1017] | K (Log of liquid dish neat product liquid-air partition coefficient greater than or equal to −7)
38 | CC(C)C(=O)OCc1ccccc1 [Material 647] | K (Log of liquid dish neat product liquid-air partition coefficient greater than or equal to −7)
39 | C=CC(C)(O)CCC=C(C)C (stereo not shown) [Material 157] | K (Log of liquid dish neat product liquid-air partition coefficient greater than or equal to −7)
40 | CC1OC(C)C2Cc3ccccc3C2O1 (stereo not shown) [Material 141] | K (Log of liquid dish neat product liquid-air partition coefficient greater than or equal to −7)
41 | C/C=C1/CC2CC1C1CCC(=O)OC21 (stereo not shown) [Material 353] | K (Log of liquid dish neat product liquid-air partition coefficient greater than or equal to −7)
42 | CC1C(C)(C)C2=C(C3OC(C)(C)OC3CC2)C1(C)C (stereo not shown) [Material 23] | K (Log of liquid dish neat product liquid-air partition coefficient greater than or equal to −7)
43 | COC1(C)CCC23CC1C(C)(C)C2CCC3C (stereo not shown) [Material 565] | K (Log of liquid dish neat product liquid-air partition coefficient greater than or equal to −7)
44 | CC(C=O)=Cc1ccccc1 [Material 701] | K (Log of liquid dish neat product liquid-air partition coefficient greater than or equal to −7)
45 | CCC(=O)N(CC)c1cccc(C)c1 [Material 755] | K (Log of liquid dish neat product liquid-air partition coefficient greater than or equal to −7)
46 | CC(=O)C1=C(C)[C@@H]2C[C@@]3(C1)[C@H](C)CC[C@H]3C2(C)C [Material 1129] | K (Log of liquid dish neat product liquid-air partition coefficient greater than or equal to −7)
47 | CC(C)C1CCC(CO)CC1 (stereo not shown) [Material 133] | K (Log of liquid dish neat product liquid-air partition coefficient greater than or equal to −7)
48 | C=C[C@](C)(O)CCC=C(C)C [Material 888] | K (Log of liquid dish neat product liquid-air partition coefficient greater than or equal to −7)
49 | C[C@@H]1CC[C@H]2C(C)(C)[C@H]3C[C@@]12CC1OC(C)(C)OC13C (stereo partly shown) [Material 674] | K (Log of liquid dish neat product liquid-air partition coefficient greater than or equal to −7)
50 | C/C=C/c1ccc(O)c(OC)c1 [Material 1084] | K (Log of liquid dish neat product liquid-air partition coefficient greater than or equal to −7)
51 | C=CC(C)(CCC=C(C)C)OC(=O)CCC (stereo not shown) [Material 151] | K (Log of liquid dish neat product liquid-air partition coefficient greater than or equal to −7)
52 | CCC(C)c1nccnc1OC (stereo not shown) [Material 845] | K (Log of liquid dish neat product liquid-air partition coefficient greater than or equal to −7)
53 | Cc1cc(O)cc(C)c1Cl [Material 557] | K (Log of liquid dish neat product liquid-air partition coefficient greater than or equal to −7)
54 | CC(C)=C1CCC2=CC(=O)CC(C)C2(C)C1 (stereo not shown) [Material 684] | K (Log of liquid dish neat product liquid-air partition coefficient greater than or equal to −7)

Same assay, conditions: codes K/L of the Comment Code, Table 1

Row | Structure (SMILES) | Comment Code: Log of liquid dish neat product liquid-air partition coefficient
55 | CC(=O)C1=C(C)[C@@H]2C[C@@]3(C1)[C@H](C)CC[C@H]3C2(C)C [Material 1129] | K (Log of liquid dish neat product liquid-air partition coefficient greater than or equal to −7)
